The text below walks through data of patent US11084847B2, “Polyamide compound and use thereof” (SICHUAN KELUN-BIOTECH BIOPHARMACEUTICAL CO., LTD., priority 2016, dated 2021).

Some results are limits rather than exact numbers.

Data set [1] addresses T1, human κ-opioid receptor (KOR) (Homo sapiens, UniProt P41145).
T1 construct: expressed in transfected cells
Put plainly: κ-opioid receptor agonistic effect (inhibition of adenylate cyclase, cAMP assay). The data set is classed as cell-based. The conditions noted are these: CHO cells stably expressing human KOR; NKH477-stimulated cAMP; four-parameter fit; read-out: ED50 (the source's name). How it is done: The efficacy of the compounds of the invention as κ-opioid receptor agonists was determined by measuring the ability of the compounds of Examples to inhibit adenylate cyclase activity.
Cell culture: hamster ovary cells CHO stably expressing human κ-opioid receptor (KOR) gene were cultured in MEMα plus nucleosides medium (Invitrogen) containing 5% FBS.
Stimulation: the test compound was 4-fold diluted in a gradient manner to obtain 11 concentrations, and 100 nl of each was transferred to a 384-well plate, and then a stimulating solution (5 uL) containing NKH477 (Tocris) was added; the cells were digested, re-suspended, and counted; and then the cells (5 uL) were added to wells, mixed gently, and incubated at 37° C. for 30 min.
Detection: cAMP Assay Kit (Cisbio) was used, cAMP-D2 and Anti-cAMP-Cryptate were added separately, and the resultant mixture was incubated for 1 h at room temperature. The plate was read using envision (Perkin Elmer) and EC50 was obtained by means of fitting with a four-parameter equation.
A general note: Changes in cAMP serve as a functional read-out for many G protein-coupled receptors.

The target of another data set is KOR (Homo sapiens, UniProt P41145). Kind of data set: Opioid receptor selectivity, radioligand competition binding (3H-diprenophrine) on cell membranes. The conditions noted are these: for Ki: Ki=IC50/(1+[radioligand]/Kd), read-out: KOR Ki; for IC50: radioligand 3H-diprenophrine, 1 h incubation, read-out: KOR IC50. How it is done:
(§1) The selectivity of the compounds of the invention for κ opioid receptors was determined by measuring the inhibitory effect of the compounds of Examples on the […] of KOR, MOR, and DOR.
(§2) The compounds of Examples at different concentrations were incubated with the cell membrane with high expression of KOR, MOR, DOR and the corresponding radioligand (KOR: 3H-diprenophrine; MOR: 3H-DAMGO; DOR: 3H-DADLE) for 1 h, the compounds of Examples competed with the radioligands for binding to KOR, MOR, DOR. After the incubation, Cell harvest was used to collect cell membranes onto a Unifilter-96 GF/C filter plate, and the unbound radioligands were washed away. The plate was placed in a 50-degree oven for 1 h, and finally the scintillation solution Microscint 20 cocktail was added and the isotope signal was detected by MicroBeta2 Reader.
(§3) According to the intensity of the isotope signal at different concentrations, the IC50 was calculated by means of fitting with a four-parameter equation, and the Ki value was calculated.
(§4) The Ki value was calculated according to the formula Ki=IC50/(1+[radioligand]/Kd), and Kd was the equilibrium dissociation constant of radioligand.
On the technique in general: Loss of bound radioactivity is the signal in a displacement assay; it reports binding, not function.

For a further data set, the target named is MOR (Homo sapiens, UniProt P35372). Put plainly: Opioid receptor selectivity, radioligand competition binding (3H-DAMGO) on cell membranes. The note with it: for Ki: Ki=IC50/(1+[radioligand]/Kd), read-out: MOR Ki; for IC50: radioligand 3H-DAMGO, 1 h incubation, read-out: MOR IC50. Here is the method:
as §1, §2, §3, §4

The target of another data set is DOR (Homo sapiens, UniProt P41143). Put plainly: Opioid receptor selectivity, radioligand competition binding (3H-DADLE) on cell membranes. The conditions noted are these: for Ki: Ki=IC50/(1+[radioligand]/Kd), read-out: DOR Ki; for IC50: radioligand 3H-DADLE, 1 h incubation, read-out: DOR IC50. How it is done:
as §1, §2, §3, §4

A short description of data set [2]: Pharmacokinetic (PK) study in rats. The class given is in vivo. The conditions noted are these: male SD rats, intravenous, 1 mg/kg; for AUC(0-t) / Cmax / Vd / half-life: rat, plasma. How it is done:
The pharmacokinetic profile of the compounds of Examples was studied by intravenous administration of the compounds of Examples to male SD rats. The dose for IV administration was 1 mg/kg, and the solvent was 5% DMSO: 5% solutol: 90% physiological saline. After IV administration, blood samples were collected at different time points for PK study. Plasma were treated by protein precipitation and then analyzed by LC-MS/MS.
In LC-MS/MS, mass spectrum was API 5500, and liquid chromatography was Shimadzu LC-30AD system. The column used for the test groups of Compound 3 and Compound 4 was Thermo C18 column (4.6 mm×100 mm, 3 μm); for mobile phases, phase A was water+0.1% formic acid, and phase B was methanol; the flow rate was 0.8 mL/min, and the column temperature was 40° C. The column used for the test group of Compound 5 was Agela AQ C18 column (2.1 mm×50 mm, 1.9 μm); for mobile phases, phase A was water+0.05% formic acid+5 mM acetic acid ammonium, and phase B was methanol+0.05% formic acid; the flow rate was 0.6 mL/min, and the column temperature was 40° C. The ion source used was the ESI source in positive ion mode, and the scanning mode was Multiple Reaction Monitoring (MRM).

The next data set concerns male ICR mice. Kind of data set: Acetic acid-induced writhing test in mice. The class given is in vivo. Also noted: ED50: unit not given here. The note with it: iv administration 15 min before 0.6% acetic acid ip; writhes counted within 15 min. Here is the method:
The analgesic effect of the compound of the invention was evaluated by measuring the ED50 of the compounds of Examples in the acetic acid-induced writhing test in mice.
The commercial glacial acetic acid solution was diluted with physiological saline to 0.6% glacial acetic acid solution. The male ICR mice were randomly separated into the drug group and the model group (to which physiological saline was administration). 15 minutes after iv administration, 0.6% acetic acid solution was intraperitoneally injected at 10 ml/kg, and the mice was immediately recorded with DV camera for 15 min. After the recording, the number of writhes of the mice within 15 min was counted from the video by blind method, the inhibition rate for the writhes was calculated according to Formula (I), and the ED50 of the compound was calculated according to Formula (II).
(I) The inhibition rate for the writhes was calculated by the formula: Inhibition rate (%)=(the number of writhes in a model group−the number of writhes in a drug group)/the number of writhes in a model group*100.
(II) The ED50 was calculated by the formula:
[formula] wherein Xm was the logarithm of the highest dose, d was the difference in the logarithm of two adjacent doses, p was the inhibition rate for each dose group, pm was the highest-dose inhibition rate, and pn was the lowest-dose inhibition rate.
A general note: Writhing tests count abdominal constrictions after an irritant is injected.

Turning to `CC(C)C[C@@H](NC(=O)[C@@H](Cc1ccccc1)NC(=O)[C@H](N)Cc1ccccc1)C(=O)N[C@H](CCCCNC[C@@H](O)CO)C(=O)N1CCC(N)(C(=O)O)CC1` [Example 1, 4-amino-1-((R)-2-((R)-2-((R)-2-((R)-2-amino-3-phenylpropanamido)-3-phenylpropanamido)-4-methylpentanamido)-6-(((R)-2,3-dihydroxypropyl)amino)hexanoyl)piperidin-4-carboxylic acid], the EC50 in data set [1] is 0.09 nM.

With `CC(C)C[C@@H](NC(=O)[C@@H](Cc1ccccc1)NC(=O)[C@H](N)Cc1ccccc1)C(=O)N[C@H](CCCCNC[C@H](O)CO)C(=O)N1CCC(N)(C(=O)O)CC1` [Example 2, 4-amino-1-((R)-2-((R)-2-((R)-2-((R)-2-amino-3-phenylpropanamido)-3-phenylpropanamido)-4-methylpentanamido)-6-(((S)-2,3-dihydroxypropyl)amino)hexanoyl)piperidin-4-carboxylic acid], the EC50 in data set [1] was determined as 0.08 nM.

For `CC(C)C[C@@H](NC(=O)[C@@H](Cc1ccccc1)NC(=O)[C@H](N)Cc1ccccc1)C(=O)N[C@H](CCCCNCCN)C(=O)N1CCC(N)(C(=O)O)CC1` [Example 3, 4-amino-1-((R)-2-((R)-2-((R)-2-((R)-2-amino-3-phenylpropanamido)-3-phenylpropanamido)-4-methylpentanamido)-6-((2-aminoethyl)amino)hexanoyl)piperidin-4-carboxylic acid], on KOR, the Ki (in general, a measure of affinity in units of concentration, obtained from inhibition or displacement) is less than 0.01 nM and the IC50 – broadly, the concentration needed to halve the response being measured – is less than 0.03 nM. For the same compound, in data set [1], the EC50 was 0.06 nM. At MOR, the Ki is more than 7180 nM and the IC50 is more than 20000 nM. At DOR, the Ki is more than 12000 nM and the IC50 is more than 20000 nM. Also, in data set [2], the “pharmacokinetic profile (in words)” value was “good exposure amount and Cmax”; the AUC(0-t) (commonly the area under the concentration-time curve up to a stated or last time point) is 1.79 µg·h/mL; the Cmax (commonly the peak of the concentration-time curve) was determined as 2.65 µg/mL; the Vd (usually the apparent volume that relates the amount in the body to the concentration in plasma or blood) worked out at 0.28 L/kg. For the same compound, the half-life – broadly, the time in which the quantity being followed falls by half – in data set [2] is 20.4 min. The compound further registered an ED50 with male ICR mice of 0.041.

As to `CC(C)C[C@@H](NC(=O)[C@@H](Cc1ccccc1)NC(=O)[C@H](N)Cc1ccccc1)C(=O)N[C@H](CCCCNCCCN)C(=O)N1CCC(N)(C(=O)O)CC1` [Example 4, 4-amino-1-((R)-2-((R)-2-((R)-2-((R)-2-amino-3-phenylpropanamido)-3-phenylpropanamido)-4-methylpentanamido)-6-((3-aminopropyl)amino)hexanoyl)piperidin-4-carboxylic acid], at KOR, the Ki is less than 0.01 nM and the half-inhibitory concentration (IC50) is less than 0.03 nM. Besides, in data set [1], the EC50 is 0.07 nM. On MOR, the Ki is more than 7180 nM and the IC50 is more than 20000 nM. Moreover, on DOR, the Ki is more than 12000 nM and the IC50 was more than 20000 nM. Also, in data set [2], the “pharmacokinetic profile (in words)” value was “good exposure amount and Cmax”; the AUC(0-t) worked out at 2.41 µg·h/mL; the Cmax came out at 3.59 µg/mL; the Vd was found to be 0.74 L/kg. For the same compound, in data set [2], the half-life was 73.2 min. This compound gave an ED50 in the data set with male ICR mice of 0.029.

For the compound `CC(C)C[C@@H](NC(=O)[C@@H](Cc1ccccc1)NC(=O)[C@H](N)Cc1ccccc1)C(=O)N[C@H](CCCCNC(CO)CO)C(=O)N1CCC(N)(C(=O)O)CC1` [Example 8, 4-amino-1-((R)-2-((R)-2-((R)-2-((R)-2-amino-3-phenylpropanamido)-3-phenylpropanamido)-4-methylpentanamido)-6-((1,3-dihydroxypropan-2-yl)amino)hexanoyl)piperidin-4-carboxylic acid], the EC50 in data set [1] is 0.03 nM.

For the compound `COCCOCCN(CCCC[C@@H](NC(=O)[C@@H](CC(C)C)NC(=O)[C@@H](Cc1ccccc1)NC(=O)[C@H](N)Cc1ccccc1)C(=O)N1CCC(N)(C(=O)O)CC1)CCOCCOC` [Example 15, 4-amino-1-((R)-2-((R)-2-((R)-2-((R)-2-amino-3-phenylpropanamido)-3-phenylpropanamido)-4-methylpentanamido)-6-(di(2-(2-methoxyethoxy)ethyl)amino)hexanoyl)piperidin-4-carboxylic acid], the EC50 in data set [1] was 0.06 nM.

Take `CC(C)C[C@@H](NC(=O)[C@@H](Cc1ccccc1)NC(=O)[C@H](N)Cc1ccccc1)C(=O)N[C@H](CCCCNCC(=O)O)C(=O)N1CCC(N)(C(=O)O)CC1` [Example 17, 4-amino-1-((R)-2-((R)-2-((R)-2-((R)-2-amino-3-phenylpropanamido)-3-phenylpropanamido)-4-methylpentanamido)-6-((carboxymethyl)amino)hexanoyl)piperidin-4-carboxylic acid]: the EC50 in data set [1] amounted to 0.42 nM.

Take `COCCOCCNCCCC[C@@H](NC(=O)[C@@H](CC(C)C)NC(=O)[C@@H](Cc1ccccc1)NC(=O)[C@H](N)Cc1ccccc1)C(=O)N1CCC2(CC1)NC(=O)NC2=O` [Example 23, 8-((R)-2-((R)-2-((R)-2-((R)-2-amino-3-phenylpropanamido)-3-phenylpropanamido)-4-methylpentanamido)-6-(2-(methoxyethoxy)ethylamino)hexanoyl)-1,3,8-triaza-spiro[4.5]decane-2,4-dione]: in data set [1], the EC50 was determined as 0.016 nM.

Take `COCCOCCNCCCC[C@@H](NC(=O)[C@@H](CC(C)C)NC(=O)[C@@H](Cc1ccccc1)NC(=O)[C@H](N)Cc1ccccc1)C(=O)N1C2CC1CN(CC(=O)O)C2` [Example 24, 2-(6-((R)-2-((R)-2-((R)-2-((R)-2-amino-3-phenylpropanamido)-3-phenylpropanamido)-4-methylpentanamido)-6-((2-(2-methoxyethoxy)ethyl)amino)hexanoyl)-3,6-diazabicyclo[3.1.1]heptan-3-yl)acetic acid]: in data set [1], the EC50 stood at 0.005 nM.
